# Assays:
# Assay type in all cases: cell-based, human
# DU145 cell line = test: Cell viability / cell growth, MTT assay
# Description: DU145 (human HRPC cell line, derived from a patient with brain metastasis) and PrEC (human normal prostate epithelial cell line) cell lines were obtained from Korea Cell Line Bank (KCLB, Seoul, South Korea). DU145 and PrEC cell lines were grown in triplicate culture plates containing RPMI-1640 (HyClone, Logan, Utah, USA) and Dulbecco's Modified Eagle's Medium (HyClone, Logan, Utah, USA) respectively, and kept in a humidified atmosphere containing 5% CO2 at 37° C. for 72 h. The media were supplemented with 10% heat-inactivated fetal bovine serum (HyClone, Logan, Utah, USA), 1% antibio-antimicotic solution containing 10,000 units/ml of penicillin and 10 mg/ml of streptomycin (HyClone, Logan, Utah, USA), HEPES, sodium bicarbonate, p-aminobenzoic acid and insulin (complete culture media). D-Allose was purchased from Sigma (St. Louis, Mo., USA) and dissolved at a concentration of 1 M in sterile phosphate-buffered saline (PBS), and was further sterilized by filtration. To examine the dose- and time-dependent effects, the cell lines (70-80% confluent) were treated with 0-40 mM of D-allose for up to 72 h, whereas without D-allose treated cell lines (0 mM) were considered as control. DU145 cell line was also treated with 0-40 mM of D-glucose. All the other chemicals used in the work were procured from Sigma (St. Louis, Mo., USA), unless otherwise specified.
# The logarithmic growth phase of DU145 and PrEC cell lines were taken for growth assay using 3-[4,5-dimethylthiazol-2-yl]-2,5-diphenyl tetrazolium bromide (MTT). […] After incubation for the specified time at 37° C. in a humidified 5% CO2 incubator, cell viability was determined. […] To achieve solubilization of formazan crystal formed in viable cells, DMSO was added to each well, and the absorbance was recorded on a microplate reader at 595 nm wavelength. The effect of sugars on growth inhibition was assessed as percent cell viability where control cells were taken as 100% viable.
# Bcl-2/Bax ratio = test: Calculation of Bcl-2/Bax ratio from densitometry of protein bands; conditions: 72 h, 0.896 at 0 Mm
# Description: After 0, 20 and 40 mM of D-allose treatments for 72 h, DU145 cell line (1×10^6 cells in triplicate culture plates) was harvested into cell lysis buffer (Cell Signaling, Danvers, Mass., USA) supplemented with 1 mM PMSF. The cells were then sonicated, centrifuged and protein concentration was measured by Bradford assay with the Bio-Rad protein assay solution using bovine serum albumin (BSA) as standard. Proteins (30 μg) were separated on a 12.5% SDS-PAGE under reducing conditions and transferred onto a PVDF membrane (Santa Cruz Biotechnology, Santa Cruz, Calif., USA). Prestained protein marker, broad range: 6-175 kDa (New England Biolabs Inc., Ipswich, Mass., USA) run in parallel for detection of the molecular weights of the proteins. […] Membrane was probed with a goat derived horseradish peroxidase-conjugated anti-rabbit IgG (1:1000; Santa Cruz Biotechnology, Santa Cruz, Calif., USA), and proteins were detected by the enhanced chemiluminescence (ECL) detection system according to the vendor's protocol (Amersham Biosciences, Piscataway, N.J., USA) followed by X-ray exposure. […] Bcl-2/bax ratios of D-allose treated groups were calculated on the basis of the densitometric analysis of the corresponding protein bands and compared the values with that of the untreated control.
# PARP = test: Western blot analysis of PARP protein in DU145; conditions: DU145, 0, 20 and 40 mM, 72 h
# Description: After 0, 20 and 40 mM of D-allose treatments for 72 h, DU145 cell line (1×10^6 cells in triplicate culture plates) was harvested into cell lysis buffer (Cell Signaling, Danvers, Mass., USA) supplemented with 1 mM PMSF. The cells were then sonicated, centrifuged and protein concentration was measured by Bradford assay with the Bio-Rad protein assay solution using bovine serum albumin (BSA) as standard. Proteins (30 μg) were separated on a 12.5% SDS-PAGE under reducing conditions and transferred onto a PVDF membrane (Santa Cruz Biotechnology, Santa Cruz, Calif., USA). Prestained protein marker, broad range: 6-175 kDa (New England Biolabs Inc., Ipswich, Mass., USA) run in parallel for detection of the molecular weights of the proteins. Membrane was blocked with 5% (w/v) skimmed milk in order to reduce non-specific binding and immunoblotting was performed using rabbit derived anti-Bcl-2, anti-Bax, anti-Caspase 3 and anti-PARP antibodies (1:500; Santa Cruz Biotechnology, Santa Cruz, Calif., USA). […] Membrane was probed with a goat derived horseradish peroxidase-conjugated anti-rabbit IgG (1:1000; Santa Cruz Biotechnology, Santa Cruz, Calif., USA), and proteins were detected by the enhanced chemiluminescence (ECL) detection system according to the vendor's protocol (Amersham Biosciences, Piscataway, N.J., USA) followed by X-ray exposure. […]
smiles,measurement,setting,value
O=C[C@H](O)[C@H](O)[C@H](O)[C@H](O)CO [D-allose],cell growth (MTT assay),"DU145 cell line; DU145, 0-40 mM, compared to control",significant dose-dependent inhibition of cell growth
same,time dependence of cell growth inhibition (MTT assay),"DU145 cell line; DU145, 24, 48 and 72 h","time-dependent inhibition of DU145 cell growth, which was more pronounced at 72 h post-treatment"
same,Bcl-2/Bax ratio,"Bcl-2/Bax ratio; DU145, 20 Mm",0.335
same,Bcl-2/Bax ratio,"Bcl-2/Bax ratio; DU145, 40 Mm",0.126
same,cleaved PARP product,PARP,concomitant increase
same,full length PARP protein expression,PARP,remarkable dose-dependent decrease

# Reference: patent US20110071094A1, “(D)-ALLOSE INDUCING PROGRAMMED CELL DEATH IN HORMONE REFRACTORY PROSTATE CANCER LINES” (INDUSTRY-ACADEMIC COOPERATION FOUDATION, GYEONGSANG …, priority 2008, published 2011)
